Experimental data reported in the supplement of paper PMC9663587.

Tests used:
LEE011/Ribociclib [1] = compound: T1, CN(C)C(=O)c1cc2cnc(Nc3ccc(N4CCNCC4)cn3)nc2n1C1CCCC1 [LEE011/Ribociclib]; experiment: increase in dead-cell fraction, 72 h; higher = more death;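 note: breast cancer cell lines in 384-well plates, stained with Hoechst plus LIVE/DEAD far red dye and imaged, cells above an LDR intensity threshold counted dead, Hoechst-negative corpses included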
Flavopiridol = compound: CN1CC[C@H](c2c(O)cc(O)c3c(=O)cc(-c4ccccc4Cl)oc23)[C@H](O)C1 [Flavopiridol]; experiment: as above
YKL-5-124 = compound: C=CC(=O)Nc1ccc(C(=O)Nc2[nH]nc3c2CN(C(=O)N[C@H](CN(C)C)c2ccccc2)C3(C)C)cc1 [YKL-5-124]; experiment: as above
BSJ-03-123 = compound: CC(=O)c1c(C)c2cnc(Nc3ccc(N4CCN(CCOCCOCCOCCNC(=O)COc5cccc6c5C(=O)N(C5CCC(=O)NC5=O)C6=O)CC4)cn3)nc2n(C2CCCC2)c1=O [BSJ-03-123]; experiment: as above
THZ531 = compound: CN(C)C/C=C/C(=O)Nc1ccc(C(=O)N2CCC[C@@H](Nc3ncc(Cl)c(-c4c[nH]c5ccccc45)n3)C2)cc1 [THZ531]; experiment: as above
[2] = compound: CCc1cnn2c(NCc3ccc[n+]([O-])c3)cc(N3CCCC[C@H]3CCO)nc12; experiment: as above
[3] = compound: CCN1CCN(Cc2ccc(Nc3ncc(F)c(-c4cc(F)c5nc(C)n(C(C)C)c5c4)n3)nc2)CC1; experiment: as above
[4] = compound: CC(=O)c1c(C)c2cnc(Nc3ccc(N4CCNCC4)cn3)nc2n(C2CCCC2)c1=O; experiment: as above
THZ1 = compound: CN(C)C/C=C/C(=O)Nc1ccc(C(=O)Nc2cccc(Nc3ncc(Cl)c(-c4c[nH]c5ccccc45)n3)c2)cc1 [THZ1]; experiment: as above
Neratinib/HKI272 = compound: CCOc1cc2ncc(C#N)c(Nc3ccc(OCc4ccccn4)c(Cl)c3)c2cc1NC(=O)/C=C/CN(C)C [Neratinib/HKI272]; experiment: as above
LEE011/Ribociclib [5] = compound: T1, LEE011/Ribociclib
Doxorubicin = compound: COc1cccc2c1C(=O)c1c(O)c3c(c(O)c1C2=O)C[C@@](O)(C(=O)CO)C[C@@H]3O[C@H]1C[C@H](N)[C@H](O)[C@H](C)O1 [Doxorubicin]
Ceritinib/LDK378 = compound: Cc1cc(Nc2ncc(Cl)c(Nc3ccccc3S(=O)(=O)C(C)C)n2)c(OC(C)C)cc1C1CCNCC1 [Ceritinib/LDK378]
[6] = compound: Cc1nn(C)c(COc2ccc(N3CCN(S(=O)(=O)N(C)C)CC3)cc2)c1-c1cccc2c(CCCOc3cccc4ccccc34)c(C(=O)O)n(CCN3CCOCC3)c12
[7] = compound: CCc1cnn2c(NCc3ccc[n+]([O-])c3)cc(N3CCCC[C@H]3CCO)nc12
Pictilisib/GDC0941 = compound: CS(=O)(=O)N1CCN(Cc2cc3nc(-c4cccc5[nH]ncc45)nc(N4CCOCC4)c3s2)CC1 [Pictilisib/GDC0941]
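Throughout, for GR50, 72 h: breast cancer and non-malignant breast epithelial cell lines, Deep Dye Drop or Dye Drop imaging, nine half-log doses, GR normalized to time-zero plates and DMSO-only controls.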

Cell Line: T47D
- increase in dead-cell fraction (LEE011/Ribociclib [1]; 0.001 µM): 0.0085
- increase in dead-cell fraction (LEE011/Ribociclib [1]; 0.003162 µM): 0.0069
- increase in dead-cell fraction (LEE011/Ribociclib [1]; 0.01 µM): 0.0061
- increase in dead-cell fraction (LEE011/Ribociclib [1]; 0.03162 µM): 0.0139
- increase in dead-cell fraction (LEE011/Ribociclib [1]; 0.1 µM): 0.0374
- increase in dead-cell fraction (LEE011/Ribociclib [1]; 0.3162 µM): 0.0392
- increase in dead-cell fraction (LEE011/Ribociclib [1]; 1 µM): 0.0267
- increase in dead-cell fraction (LEE011/Ribociclib [1]; 3.162 µM): 0.0405
- increase in dead-cell fraction (LEE011/Ribociclib [1]; 10 µM): 0.0242
- increase in dead-cell fraction (Flavopiridol; 0.0001 µM): 0.0101
- increase in dead-cell fraction (Flavopiridol; 0.0003162 µM): -0.0037
- increase in dead-cell fraction (Flavopiridol; 0.001 µM): 0.0027
- increase in dead-cell fraction (Flavopiridol; 0.003162 µM): 0.0005
- increase in dead-cell fraction (Flavopiridol; 0.01 µM): 0.0011
- increase in dead-cell fraction (Flavopiridol; 0.03162 µM): -0.0028
- increase in dead-cell fraction (Flavopiridol; 0.1 µM): 0.0027
- increase in dead-cell fraction (Flavopiridol; 0.3162 µM): 0.0159
- increase in dead-cell fraction (Flavopiridol; 1 µM): 0.0323
- increase in dead-cell fraction (YKL-5-124; 0.001 µM): 0.0113
- increase in dead-cell fraction (YKL-5-124; 0.003162 µM): 0.0129
- increase in dead-cell fraction (YKL-5-124; 0.01 µM): 0.0177
- increase in dead-cell fraction (YKL-5-124; 0.03162 µM): 0.0322
- increase in dead-cell fraction (YKL-5-124; 0.1 µM): 0.0269
- increase in dead-cell fraction (YKL-5-124; 0.3162 µM): 0.0156
- increase in dead-cell fraction (YKL-5-124; 1 µM): 0.0308
- increase in dead-cell fraction (YKL-5-124; 3.162 µM): 0.0206
- increase in dead-cell fraction (YKL-5-124; 10 µM): 0.0574
- increase in dead-cell fraction (BSJ-03-123; 0.001 µM): 0.0097
- increase in dead-cell fraction (BSJ-03-123; 0.003162 µM): 0.0074
- increase in dead-cell fraction (BSJ-03-123; 0.01 µM): 0.0101
- increase in dead-cell fraction (BSJ-03-123; 0.03162 µM): 0.0084
- increase in dead-cell fraction (BSJ-03-123; 0.1 µM): 0.019
- increase in dead-cell fraction (BSJ-03-123; 0.3162 µM): 0.021
- increase in dead-cell fraction (BSJ-03-123; 1 µM): 0.0319
- increase in dead-cell fraction (BSJ-03-123; 3.162 µM): 0.022
- increase in dead-cell fraction (BSJ-03-123; 10 µM): 0.0281
- increase in dead-cell fraction (THZ531; 0.0001 µM): -0.0029
- increase in dead-cell fraction (THZ531; 0.0003162 µM): 0.0085
- increase in dead-cell fraction (THZ531; 0.001 µM): -0.0033
- increase in dead-cell fraction (THZ531; 0.003162 µM): 0.0028
- increase in dead-cell fraction (THZ531; 0.01 µM): -0.0045
- increase in dead-cell fraction (THZ531; 0.03162 µM): 0.0014
- increase in dead-cell fraction (THZ531; 0.1 µM): 0.01
- increase in dead-cell fraction (THZ531; 0.3162 µM): 0.035
- increase in dead-cell fraction (THZ531; 1 µM): 0.0357
- increase in dead-cell fraction ([2]; 0.0001 µM): -0.0001
- increase in dead-cell fraction ([2]; 0.0003162 µM): 0.0027
- increase in dead-cell fraction ([2]; 0.001 µM): -0.0018
- increase in dead-cell fraction ([2]; 0.003162 µM): -0.0021
- increase in dead-cell fraction ([2]; 0.01 µM): 0.0073
- increase in dead-cell fraction ([2]; 0.03162 µM): 0.0576
- increase in dead-cell fraction ([2]; 0.1 µM): 0.106
- increase in dead-cell fraction ([2]; 0.3162 µM): 0.138
- increase in dead-cell fraction ([2]; 1 µM): 0.127
- increase in dead-cell fraction ([3]; 0.001 µM): -0.0007
- increase in dead-cell fraction ([3]; 0.003162 µM): 0.0004
- increase in dead-cell fraction ([3]; 0.01 µM): 0.0119
- increase in dead-cell fraction ([3]; 0.03162 µM): 0.0119
- increase in dead-cell fraction ([3]; 0.1 µM): 0.0081
- increase in dead-cell fraction ([3]; 0.3162 µM): 0.0178
- increase in dead-cell fraction ([3]; 1 µM): 0.0167
- increase in dead-cell fraction ([3]; 3.162 µM): 0.0642
- increase in dead-cell fraction ([3]; 10 µM): 0.104
- increase in dead-cell fraction ([4]; 0.0003162 µM): 0.0016
- increase in dead-cell fraction ([4]; 0.001 µM): -0.001
- increase in dead-cell fraction ([4]; 0.003162 µM): 0.0022
- increase in dead-cell fraction ([4]; 0.01 µM): 0.0006
- increase in dead-cell fraction ([4]; 0.03162 µM): 0.0078
- increase in dead-cell fraction ([4]; 0.1 µM): 0.0116
- increase in dead-cell fraction ([4]; 0.3162 µM): 0.0158
- increase in dead-cell fraction ([4]; 1 µM): 0.0154
- increase in dead-cell fraction ([4]; 3.162 µM): 0.0097
- increase in dead-cell fraction (THZ1; 0.0001 µM): -0.0018
- increase in dead-cell fraction (THZ1; 0.0003162 µM): 0.0029
- increase in dead-cell fraction (THZ1; 0.001 µM): 0.0039
- increase in dead-cell fraction (THZ1; 0.003162 µM): 0.005
- increase in dead-cell fraction (THZ1; 0.01 µM): -0.0043
- increase in dead-cell fraction (THZ1; 0.03162 µM): 0.0328
- increase in dead-cell fraction (THZ1; 0.1 µM): 0.0197
- increase in dead-cell fraction (THZ1; 0.3162 µM): 0.0299
- increase in dead-cell fraction (THZ1; 1 µM): 0.0416
- increase in dead-cell fraction (Neratinib/HKI272; 0.0003162 µM): -0.0033
- increase in dead-cell fraction (Neratinib/HKI272; 0.001 µM): 0.0054
- increase in dead-cell fraction (Neratinib/HKI272; 0.003162 µM): 0.0022
- increase in dead-cell fraction (Neratinib/HKI272; 0.01 µM): 0.0045
- increase in dead-cell fraction (Neratinib/HKI272; 0.03162 µM): 0.0043
- increase in dead-cell fraction (Neratinib/HKI272; 0.1 µM): 0.0001
- increase in dead-cell fraction (Neratinib/HKI272; 0.3162 µM): 0.0101
- increase in dead-cell fraction (Neratinib/HKI272; 1 µM): 0.0084
- increase in dead-cell fraction (Neratinib/HKI272; 3.162 µM): 0.0225
- GR50, 72 h (LEE011/Ribociclib [5]): 0.0057 µM
- GR50, 72 h (Doxorubicin): 0.00189 µM
- GR50, 72 h (Ceritinib/LDK378): 1.56 µM
- GR50, 72 h [6]: > 10 µM
- GR50, 72 h [7]: 0.0199 µM
- GR50, 72 h (Pictilisib/GDC0941): 0.155 µM
